The test system of this data set is CCRIS mutagenicity, Ames/micronucleus/aberration tests. Kind of data set: CCRIS mutagenicity studies.
Where [1] appears, read: Test System: AMES SALMONELLA TYPHIMURIUM, Strain/Indicator: TA98, Metabolic Activation: NONE, Method: STANDARD PLATE.
The mark [2] stands for this setting: Test System: AMES SALMONELLA TYPHIMURIUM, Strain/Indicator: TA98, Metabolic Activation: RAT, LIVER, S-9, AROCLOR 1254, Method: STANDARD PLATE.
Setting [3] is: Test System: AMES SALMONELLA TYPHIMURIUM, Strain/Indicator: TA100, Metabolic Activation: NONE, Method: STANDARD PLATE.
Setting [4] is: Test System: AMES SALMONELLA TYPHIMURIUM, Strain/Indicator: TA100, Metabolic Activation: RAT, LIVER, S-9, AROCLOR 1254, Method: STANDARD PLATE.
The mark [5] stands for this setting: Test System: Ames Salmonella typhimurium, Strain/Indicator: TA100, Metabolic Activation: None, Method: Preincubation.

Seven molecules from PubChem BioAssay AID1259407 (Chemical Carcinogenesis Research Information System (CCRIS), 2018) can be followed below.

The source made the active and inactive calls. No rule for the calls is given here.

Take `CCCCCC(O)/C=C/C=O` (configuration not stated): the mutagenic call is, setting by setting: (End Point: IN VITRO CHROMOSOMAL ABERRATIONS, Test System: RAT HEPATOCYTES, Metabolic Activation: NONE) “active; positive”; (End Point: IN VITRO CHROMOSOMAL ABERRATIONS, Test System: SWINE- BRAIN ENDOTHELIAL CELLS, Metabolic Activation: NONE) “active; positive”; (End Point: IN VITRO MICRONUCLEUS, Test System: RAT HEPATOCYTES, Metabolic Activation: NONE) “active; positive”; (End Point: IN VITRO MICRONUCLEUS, Test System: SWINE- BRAIN ENDOTHELIAL CELLS, Metabolic Activation: NONE) “active; positive”; (Test System: AMES SALMONELLA TYPHIMURIUM, Strain/Indicator: TA100, Metabolic Activation: NONE) “inactive; negative”; (Test System: AMES SALMONELLA TYPHIMURIUM, Strain/Indicator: TA104, Metabolic Activation: NONE) “inactive; negative”. The mutagenic call (Test System: CHINESE HAMSTER V-79, Strain/Indicator: V-79/6-THIOGUANINE, Metabolic Activation: NONE) is “active; positive” and the mutagenic call (Test System: MOUSE LYMPHOMA, Strain/Indicator: L5178Y (TK+/TK-), Metabolic Activation: NONE, Method: SUSPENSION/PLATE) is “active; positive; administered as acetate”.

Take `O=C(c1ccc(F)cc1)[C@@H]1O[C@@H]1c1ccccc1`: the mutagenic call is, setting by setting: under setting [1], “inactive; negative”; under setting [2], “inactive; negative”; under setting [3], “active; positive”; under setting [4], “inactive; negative”.

For the molecule `ClCCCl`, the mutagenic call runs as follows: (Test System: AMES SALMONELLA TYPHIMURIUM, Strain/Indicator: TA97, Metabolic Activation: HAMSTER, LIVER, S-9, AROCLOR 1254 (10%), Method: PREINCUBATION) “inactive; negative”; (Test System: AMES SALMONELLA TYPHIMURIUM, Strain/Indicator: TA97, Metabolic Activation: NONE, Method: PREINCUBATION) “inactive; negative”; (Test System: AMES SALMONELLA TYPHIMURIUM, Strain/Indicator: TA97, Metabolic Activation: NONE, Method: STANDARD PLATE) “inactive; negative”; (Test System: AMES SALMONELLA TYPHIMURIUM, Strain/Indicator: TA97, Metabolic Activation: RAT, LIVER, S-9, AROCLOR 1254 (10%), Method: PREINCUBATION) “inactive; negative”; (Test System: AMES SALMONELLA TYPHIMURIUM, Strain/Indicator: TA97, Metabolic Activation: RAT, LIVER, S-9, AROCLOR 1254, Method: STANDARD PLATE) “active; positive”; (Test System: AMES SALMONELLA TYPHIMURIUM, Strain/Indicator: TA98, Metabolic Activation: HAMSTER, LIVER, S-9, AROCLOR 1254 (10%), Method: PREINCUBATION) “inactive; negative”. The mutagenic call is, setting by setting: (Test System: AMES SALMONELLA TYPHIMURIUM, Strain/Indicator: TA98, Metabolic Activation: NONE, Method: PREINCUBATION) “inactive; negative”; under setting [1], “inactive; negative”; (Test System: AMES SALMONELLA TYPHIMURIUM, Strain/Indicator: TA98, Metabolic Activation: RAT, LIVER, S-9, AROCLOR 1254 (10%), Method: PREINCUBATION) “inactive; negative”; under setting [2], “active; positive”; (Test System: AMES SALMONELLA TYPHIMURIUM, Strain/Indicator: TA100, Metabolic Activation: HAMSTER, LIVER, S-9, AROCLOR 1254 (10%), Method: PREINCUBATION) “inactive; negative”; (Test System: AMES SALMONELLA TYPHIMURIUM, Strain/Indicator: TA100, Metabolic Activation: NONE, Method: PREINCUBATION) “inactive; negative”. Besides, the mutagenic call is “active; positive” under setting [3]; “inactive; negative” (Test System: AMES SALMONELLA TYPHIMURIUM, Strain/Indicator: TA100, Metabolic Activation: RAT, LIVER, S-9, AROCLOR 1254 (10%), Method: PREINCUBATION); “active; positive” under setting [4]; “inactive; negative” (Test System: AMES SALMONELLA TYPHIMURIUM, Strain/Indicator: TA104, Metabolic Activation: NONE, Method: STANDARD PLATE); “active; positive” (Test System: AMES SALMONELLA TYPHIMURIUM, Strain/Indicator: TA104, Metabolic Activation: RAT, LIVER, S-9, AROCLOR 1254, Method: STANDARD PLATE); “active; positive” (Test System: AMES SALMONELLA TYPHIMURIUM, Strain/Indicator: TA1530, Metabolic Activation: NONE, Method: SPOT). For the same molecule, the mutagenic call runs as follows: (Test System: AMES SALMONELLA TYPHIMURIUM, Strain/Indicator: TA1535, Metabolic Activation: HAMSTER, LIVER, S-9, AROCLOR 1254 (10%), Method: PREINCUBATION) “active; positive”; (Test System: AMES SALMONELLA TYPHIMURIUM, Strain/Indicator: TA1535, Metabolic Activation: NONE, Method: PREINCUBATION) “inactive; negative”; (Test System: AMES SALMONELLA TYPHIMURIUM, Strain/Indicator: TA1535, Metabolic Activation: NONE, Method: SPOT) “active; positive”; (Test System: AMES SALMONELLA TYPHIMURIUM, Strain/Indicator: TA1535, Metabolic Activation: NONE, Method: STANDARD PLATE) “inactive; negative”; (Test System: AMES SALMONELLA TYPHIMURIUM, Strain/Indicator: TA1535, Metabolic Activation: RAT, LIVER, S-9, AROCLOR 1254 (10%), Method: PREINCUBATION) “active; positive”; (Test System: AMES SALMONELLA TYPHIMURIUM, Strain/Indicator: TA1535, Metabolic Activation: RAT, LIVER, S-9, Method: STANDARD PLATE) “active; positive”. The mutagenic call is, setting by setting: (Test System: AMES SALMONELLA TYPHIMURIUM, Strain/Indicator: TA1535, Metabolic Activation: S-9 MIX, Method: STANDARD PLATE) “active; positive”; (Test System: Ames Salmonella typhimurium, Strain/Indicator: TA98, Metabolic Activation: None, Method: Preincubation) “inactive; negative”; (Test System: Ames Salmonella typhimurium, Strain/Indicator: TA98, Metabolic Activation: Rat, Liver, S9, Sodium phenobarbital and 5,6-benzoflavone (10%), Method: Preincubation) “inactive; negative”; under setting [5], “inactive; negative”; (Test System: Ames Salmonella typhimurium, Strain/Indicator: TA100, Metabolic Activation: Rat, Liver, S9, Sodium phenobarbital and 5,6-benzoflavone (10%), Method: Preincubation) “inactive; negative”; (Test System: Ames Salmonella typhimurium, Strain/Indicator: TA1535, Metabolic Activation: Rat, Liver, S9, Sodium phenobarbital and 5,6-benzoflavone (10%), Method: Preincubation) “active; positive”. Also, the mutagenic call by setting is: (Test System: Ames Salmonella typhimurium, Strain/Indicator: TA1537, Metabolic Activation: None, Method: Preincubation) “inactive; negative”; (Test System: Ames Salmonella typhimurium, Strain/Indicator: TA1537, Metabolic Activation: Rat, Liver, S9, Sodium phenobarbital and 5,6-benzoflavone (10%), Method: Preincubation) “inactive; negative”; (Test System: E. coli, Strain/Indicator: WP2uvrA/pKM101, Metabolic Activation: None, Method: Preincubation) “inactive; negative”; (Test System: E. coli, Strain/Indicator: WP2uvrA/pKM101, Metabolic Activation: Rat, Liver, S9, Sodium phenobarbital and 5,6-benzoflavone (10%), Method: Preincubation) “inactive; negative”.

For `COC(=O)[C@H](C)CN=[N+]=[N-]`, the mutagenic call (Test System: AMES SALMONELLA TYPHIMURIUM, Strain/Indicator: TA100, Metabolic Activation: RAT, LIVER, S-9, PCB, Method: PREINCUBATION) is “active; positive”.

Regarding `CC(=O)N(O)c1ccc(Cl)cc1`, the mutagenic call reads like this: under setting [1], “inactive; negative”; under setting [2], “inactive; negative”; under setting [3], “inactive; negative”; under setting [4], “inactive; negative”.

In the case of `CCCCOO`, the mutagenic call under setting [3] is “inactive; negative” and the mutagenic call (Test System: AMES SALMONELLA TYPHIMURIUM, Strain/Indicator: TA102, Metabolic Activation: NONE, Method: STANDARD PLATE) was “active; positive”.

For the molecule `[C-]#[O+].[C-]#[O+].[Ni].c1ccc([PH+](c2ccccc2)c2ccccc2)cc1.c1ccc([PH+](c2ccccc2)c2ccccc2)cc1`, the mutagenic call is “inactive; negative” under setting [5]; “inactive; negative” (Test System: Ames Salmonella typhimurium, Strain/Indicator: TA100, Metabolic Activation: Rat, Liver, S-9, Phenobarbital and 5,6-benzoflavone, Method: Preincubation); “inactive; negative” (Test System: Ames Salmonella typhimurium, Strain/Indicator: TA102, Metabolic Activation: None, Method: Preincubation); “inactive; negative” (Test System: Ames Salmonella typhimurium, Strain/Indicator: TA102, Metabolic Activation: Rat, Liver, S-9, Phenobarbital and 5,6-benzoflavone, Method: Preincubation).
